Legend:
GST-tagged FAK = target: T1, GST-tagged FAK (Homo sapiens, UniProt Q05397); experiment: Biochemical assay for FAK activity, Assay 1: phosphorylation of peptide substrate with radio-labeled ATP; conditions: 5 μM ATP, 30 min pre-incubation, read-out: Assay 1 FAK TRF PXC50 (converted)
T1 construct: purchased Invitrogen PV3832
Protocol: GST-tagged (glutathione S-transferase-tagged) FAK was purchased from Invitrogen (PV3832) (www.invitrogen.com). […] To measure inhibitors of FAK, compounds were first prepared as a 10× stock in 10% DMSO. […] A 6-nM GST-FAK solution was prepared in 1.1× reaction buffer containing 44 mM HEPES, pH=7.2, 11 mM MgCl2, 2.2 mM MnCl2, 1.1 mM DTT and 0.011% Tween-20. Then, 20 μL of the 6 nM GST-FAK solution were pre-incubated with the compounds for 30 min at room temperature. […] The reaction was allowed to proceed for 90 min before being quenched with 40 μL of 1% H3PO4. A portion of the reaction mixture (60 μL) was transferred to a phospho-cellulose filter plate (Millipore; www.millipore.com, MAPHNOB50) and incubated for 20 minutes. The plate was filtrated, washed three times using 150 μL of 0.5% H3PO4 and dried at 50° C. for 30 min. After the addition of 60 μL Microscint-20 to the plate, radioactivity was measured using a TopCount (PerkinElmer; www.PerkinElmer.com).

[1] = target: T2, Full length Human FAK (Flag-His-TEV-FAK1) (Homo sapiens, UniProt Q05397); experiment: Biochemical assay for FAK activity, Assay 2: LANCE Ultra ULight peptide phosphorylation, 665 nm/615 nm ratio; conditions: Flag-His-TEV-FAK1, 10 μM ATP, 30 min pre-incubation; read-out: Assay 2 FAK H 31284A TRF PXC50 (converted)
T2 construct: Full length Human FAK was expressed using baculovirus in Sf9 cells; made in house; host or cells: baculovirus in Sf9 cells
T2 sequence (Q05397 whole entry): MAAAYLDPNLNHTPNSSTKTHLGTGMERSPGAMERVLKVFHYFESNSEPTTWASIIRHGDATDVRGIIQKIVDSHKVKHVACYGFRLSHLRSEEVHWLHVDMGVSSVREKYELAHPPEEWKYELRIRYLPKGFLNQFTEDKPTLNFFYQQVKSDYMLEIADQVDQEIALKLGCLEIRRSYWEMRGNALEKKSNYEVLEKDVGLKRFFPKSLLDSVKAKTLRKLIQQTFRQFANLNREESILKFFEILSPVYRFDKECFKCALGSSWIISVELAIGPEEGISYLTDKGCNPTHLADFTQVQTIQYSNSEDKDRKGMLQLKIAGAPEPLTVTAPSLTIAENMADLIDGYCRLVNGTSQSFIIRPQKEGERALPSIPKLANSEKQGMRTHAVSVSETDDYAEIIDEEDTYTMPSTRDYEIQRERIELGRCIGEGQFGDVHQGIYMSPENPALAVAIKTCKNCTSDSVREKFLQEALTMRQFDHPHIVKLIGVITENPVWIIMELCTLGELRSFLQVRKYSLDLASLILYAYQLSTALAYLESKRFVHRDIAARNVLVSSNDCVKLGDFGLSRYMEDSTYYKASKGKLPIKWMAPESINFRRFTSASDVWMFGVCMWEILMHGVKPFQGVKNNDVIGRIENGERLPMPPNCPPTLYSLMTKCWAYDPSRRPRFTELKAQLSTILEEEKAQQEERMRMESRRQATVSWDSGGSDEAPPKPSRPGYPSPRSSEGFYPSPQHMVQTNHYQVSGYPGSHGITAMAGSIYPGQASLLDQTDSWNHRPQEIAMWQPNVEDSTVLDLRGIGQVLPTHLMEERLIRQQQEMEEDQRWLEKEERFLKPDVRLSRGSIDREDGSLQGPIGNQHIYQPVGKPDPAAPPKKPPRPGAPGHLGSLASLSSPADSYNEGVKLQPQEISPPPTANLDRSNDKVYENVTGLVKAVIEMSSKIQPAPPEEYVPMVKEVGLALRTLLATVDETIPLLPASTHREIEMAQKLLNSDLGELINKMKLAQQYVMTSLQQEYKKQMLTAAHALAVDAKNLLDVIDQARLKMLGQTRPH

T1 sequence (Q05397 whole entry): as above

Row | Structure (SMILES) | IC50 (GST-tagged FAK) | IC50 [1]
1 | CCOC(=O)c1cc(Nc2cc(Nc3ccccc3C(=O)NC)c(Cl)cn2)n(CC)n1 [Example 17, Ethyl 5-{[5-chloro-4-({2-[(methylamino)carbonyl]phenyl}amino)-2-pyridinyl]amino}-1-ethyl-1H-pyrazole-3-carboxylate] | 1.26 nM | 39.8 nM
2 | CCn1nc(C(=O)N(C)CCN(C)C)cc1Nc1cc(Nc2ccccc2C(=O)NC)c(Cl)cn1 [Example 25, 5-{[5-Chloro-4-({2-[(methylamino)carbonyl]phenyl}amino)-2-pyridinyl]amino}-N-[2-(dimethylamino)ethyl]-1-ethyl-N-methyl-1H-pyrazole-3-carboxamide] | 2.51 nM | 31.6 nM

Reference: patent US20140155410A1 (GlaxoSmithKline LLC, priority 2008, published 2014)
